Data published in EP2857388A1, “Azoles containing sulfone” (Grünenthal GmbH, priority 2013, dated 2015).

Molecular target: T1, human B1R (Homo sapiens, UniProt P46663)
T1 construct: expressed in transfected cells; host or cells: CHO K1 cells (Chinese Hamster Ovary), stably transfected
T1 sequence (P46663 1-353): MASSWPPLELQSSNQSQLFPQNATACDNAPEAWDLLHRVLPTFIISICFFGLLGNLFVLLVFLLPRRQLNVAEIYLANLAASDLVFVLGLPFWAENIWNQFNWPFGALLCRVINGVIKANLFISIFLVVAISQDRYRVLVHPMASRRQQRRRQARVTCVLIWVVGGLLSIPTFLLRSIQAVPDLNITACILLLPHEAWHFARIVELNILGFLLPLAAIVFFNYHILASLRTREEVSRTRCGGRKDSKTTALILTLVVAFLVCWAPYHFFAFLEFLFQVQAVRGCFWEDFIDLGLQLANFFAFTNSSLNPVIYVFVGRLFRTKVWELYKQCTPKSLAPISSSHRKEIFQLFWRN
Test: Functional assay at bradykinin receptor 1 (B1R): Ca2+ fluorescence (Fluo-4) in FLIPR/Novostar, antagonist mode
Format: cell-based
Conditions: test substance 10 µM, CHO K1 cells stably transfected with human B1R gene (hB1R-Zellen), agonist Lys-Des-Arg9-Bradykinin at EC80, % inhibition relative to maximal achievable inhibition; for inhibition at 10 µM: read-out: % Inhibierung (human B1R) bei 10 µM
Procedure, shortened: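 CHO K1 cells stably expressing human B1R were loaded with Fluo-4 and preincubated 6–20 min with test compound before Lys-Des-Arg9-bradykinin at its EC80. Peak fluorescence (ex 488/em 540 nm) gave % inhibition versus maximal inhibition; IC50 from several concentrations, n=2 or 3.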

inhibition at 10 µM [%]	% Inhibierung (human B1R) bei 10 µM [%]	Compound
100		COc1cc(C)c(S(=O)(=O)Cc2cn(CC(=O)N(C)[C@H]3CCC[C@@H](N4CCN(C)CC4)C3)nn2)c(C)c1 [SC-84, 2-[4-[[(4-Methoxy-2,6-dimethyl-phenyl)sulfonyl]-methyl]-1H-[1,2,3]triazol-1-yl]-N-methyl-N-[(1S,3R)-3-(4-methyl-piperazin-1-yl)-cyclohexyl]-acetamid]
100		COc1cc(C)c(S(=O)(=O)Cc2noc(C(=O)N3CCC4(CCN(C)C4)C3)n2)c(C)c1 (stereo not drawn) [CC-147, [3-[[(4-Methoxy-2,6-dimethyl-phenyl)sulfonyl]-methyl]-[1,2,4]oxadiazol-5-yl]-(2-methyl-2,8-diazaspiro[4.4]nonan-8-yl)-methanon]
100		COc1cc(C)c(S(=O)(=O)Cc2nc(CC(=O)NC3CCN(C)CC3(C)C)no2)c(C)c1 (stereo not drawn) [CC-102, 2-[5-[[(4-Methoxy-2,6-dimethyl-phenyl)sulfonyl]-methyl]-[1,2,4]oxadiazol-3-yl]-N-(1,3,3-trimethyl-piperidin-4-yl)-acetamid]
79		Cc1cc(S(=O)(=O)Cc2noc(CC(=O)NC3CCC(N(C)C)CC3)n2)c(C)cc1Cl (stereo not drawn) [CC-81, 2-[3-[[(4-Chlor-2,5-dimethyl-phenyl)sulfonyl]-methyl]-[1,2,4]oxadiazol-5-yl]-N-(4-dimethylamino-cyclohexyl)-acetamid]
86		Cc1cc(S(=O)(=O)Cc2noc(C(=O)NC3CCNCC3(C)C)n2)c(C)cc1Cl (stereo not drawn) [CC-24, 3-[[(4-Chlor-2,5-dimethyl-phenyl)sulfonyl]-methyl]-N-(3,3-dimethyl-piperidin-4-yl)-[1,2,4]oxadiazol-5-carbonsäure amid]
89		Cc1cccc(Cl)c1S(=O)(=O)Cc1noc(CC(=O)N(C)[C@H]2CCC[C@@H](N3CCN(C)CC3)C2)n1 [SC-50, 2-[3-[[(2-Chlor-6-methyl-phenyl)sulfonyl]-methyl]-[1,2,4]oxadiazol-5-yl]-N-methyl-N-[(1S,3R)-3-(4-methyl-piperazin-1-yl)-cyclohexyl]-acetamid]
100		COc1cc(C)c(S(=O)(=O)Cc2noc(C(=O)NC3CCC(N(C)C)CC3)n2)c(C)c1 (stereo not drawn) [CC-04, N-(4-Dimethylamino-cyclohexyl)-3-[[(4-methoxy-2,6-dimethyl-phenyl)sulfonyl]-methyl]-[1,2,4]oxa-diazol-5-carbonsäure amid]
100		COc1cc(C)c(S(=O)(=O)Cc2noc(CC(=O)N(C)C3CCN(Cc4ccc(N5CCCC5)nc4)CC3)n2)c(C)c1 [SC-65, 2-[3-[[(4-Methoxy-2,6-dimethyl-phenyl)sulfonyl]-methyl]-[1,2,4]oxadiazol-5-yl]-N-methyl-N-[1-[(6-pyrrolidin-1-yl-pyridin-3-yl)-methyl]-piperidin-4-yl]-acetamid]
100		COc1cc(C)c(S(=O)(=O)Cc2nc(CC(=O)NC3CCC(NC4CC4)CC3(C)C)no2)c(C)c1 (stereo not drawn) [CC-35, N-[4-(Cyclopropylamino)-2,2-dimethyl-cyclohexyl]-2-[5-[[(4-methoxy-2,6-dimethyl-phenyl)sulfonyl]-methyl]-[1,2,4]oxadiazol-3-yl]-acetamid]
100		COc1cc(C)c(S(=O)(=O)Cc2noc(C(=O)NC3CCC(N4CCCC4)CC3(C)C)n2)c(C)c1 (stereo not drawn) [CC-21, N-(2,2-Dimethyl-4-pyrrolidin-1-yl-cyclohexyl)-3-[[(4-methoxy-2,6-dimethyl-phenyl)sulfonyl]-methyl]-[1,2,4]oxadiazol-5-carbonsäure amid]
100		COc1cc(C)c(S(=O)(=O)Cc2noc(CC(=O)NC3CCC(N4CCCC4)CC3(C)C)n2)c(C)c1 (stereo not drawn) [CC-23, N-(2,2-Dimethyl-4-pyrrolidin-1-yl-cyclohexyl)-2-[3-[[(4-methoxy-2,6-dimethyl-phenyl)sulfonyl]-methyl]-[1,2,4]oxadiazol-5-yl]-acetamid]
100		Cc1cc(S(=O)(=O)Cc2noc(C(=O)N(C)CCC3CCN(c4ccncc4)CC3)n2)c(C)cc1Cl [CC-16, 3-[[(4-Chlor-2,5-dimethyl-phenyl)sulfonyl]-methyl]-N-methyl-N-[2-(1-pyridin-4-yl-piperidin-4-yl)-ethyl]-[1,2,4]oxadiazol-5-carbonsäure amid]
64		CC(=O)N1CCC(NC(=O)Cc2nc(CS(=O)(=O)c3cc(C)c(Cl)cc3C)no2)C(C)(C)C1 (stereo not drawn) [CC-46, N-(1-Acetyl-3,3-dimethyl-piperidin-4-yl)-2-[3-[[(4-chlor-2,5-dimethyl-phenyl)sulfonyl]-methyl]-[1,2,4]oxadiazol-5-yl]-acetamid]
98		COc1cc(C)c(S(=O)(=O)Cc2cc(C)n(CC(=O)NC3CCC(N4CCCC4)CC3(C)C)n2)c(C)c1 (stereo not drawn) [CC-155, N-(2,2-Dimethyl-4-pyrrolidin-1-yl-cyclohexyl)-2-[3-[[(4-methoxy-2,6-dimethyl-phenyl)sulfonyl]-methyl]-5-methyl-1 H-pyrazol-1-yl]-acetamid]
100		COc1cc(C)c(S(=O)(=O)Cc2noc(CC(=O)N(C)C3CCN(Cc4ccc(OC)nc4)CC3)n2)c(C)c1 [SC-55, 2-[3-[[(4-Methoxy-2,6-dimethyl-phenyl)sulfonyl]-methyl]-[1,2,4]oxadiazol-5-yl]-N-[1-[(6-methoxy-pyridin-3-yl)-methyl]-piperidin-4-yl]-N-methyl-acetamid]
87		Cc1cccc(Cl)c1S(=O)(=O)Cc1noc(CC(=O)N(C)C2CCNCC2(C)C)n1 (stereo not drawn) [CC-110, 2-[3-[[(2-Chlor-6-methyl-phenyl)sulfonyl]-methyl]-[1,2,4]oxadiazol-5-yl]-N-(3,3-dimethyl-piperidin-4-yl)-N-methyl-acetamid]
100		COc1cc(C)c(S(=O)(=O)Cc2noc(CC(=O)N(C)C3CCN(c4ccnc(N(C)C)c4)CC3)n2)c(C)c1 [SC-67, N-[1-(2-Dimethylamino-pyridin-4-yl)-piperidin-4-yl]-2-[3-[[(4-methoxy-2,6-dimethyl-phenyl)-sulfonyl]-methyl]-[1,2,4]oxadiazol-5-yl]-N-methyl-acetamid]
100		COc1cc(C)c(S(=O)(=O)Cc2noc(CC(=O)N3CCN(c4ccncc4)CC3)n2)c(C)c1 [CC-133, 2-[3-[[(4-Methoxy-2,6-dimethyl-phenyl)sulfonyl]-methyl]-[1,2,4]oxadiazol-5-yl]-1-(4-pyridin-4-yl-piperazin-1-yl)-ethanon]
100		Cc1cc(S(=O)(=O)Cc2noc(CC(=O)NC3CCC(N4CCN(C)CC4)CC3(C)C)n2)c(C)cc1Cl (stereo not drawn) [CC-45, 2-[3-[[(4-Chlor-2,5-dimethyl-phenyl)sulfonyl]-methyl]-[1,2,4]oxadiazol-5-yl]-N-[2,2-dimethyl-4-(4-methyl-piperazin-1-yl)-cyclohexyl]-acetamid]
100		COc1cc(C)c(S(=O)(=O)Cc2cn(CC(=O)N3CCC(CN4CCN(C)CC4)C3)nn2)c(C)c1 (stereo not drawn) [SC-93, 2-[4-[[(4-Methoxy-2,6-dimethyl-phenyl)sulfonyl]-methyl]-1H-[1,2,3]triazol-1-yl]-1-[3-[(4-methyl-piperazin-1-yl)-methyl]-pyrrolidin-1-yl]-ethanon]
	61	2-[3-[[(2,3-Dichlor-phenyl)sulfonyl]-methyl]-[1,2,4]oxadiazol-5-yl]-N-(1,3,3-trimethyl-piperidin-4-yl)-acetamid [CC-114]
100		COCCN1CCC(NC(=O)Cc2noc(CS(=O)(=O)c3c(C)cc(OC)cc3C)n2)C(C)(C)C1 (stereo not drawn) [CC-27, 2-[5-[[(4-Methoxy-2,6-dimethyl-phenyl)sulfonyl]-methyl]-[1,2,4]oxadiazol-3-yl]-N-[1-(2-methoxy-ethyl)-3,3-dimethyl-piperidin-4-yl]-acetamid]
99		COc1cc(C)c(S(=O)(=O)Cc2cc(C)n(CC(=O)NC3CCC(N4CCN(C)CC4)CC3(C)C)n2)c(C)c1 (stereo not drawn) [CC-163, N-[2,2-Dimethyl-4-(4-methyl-piperazin-1-yl)-cyclohexyl]-2-[3-[[(4-methoxy-2,6-dimethyl-phenyl)sulfonyl]-methyl]-5-methyl-1H-pyrazol-1-yl]-acetamid]
100		COc1cc(C)c(S(=O)(=O)Cc2nc(CC(=O)N(C)C3CCNCC3(C)C)no2)c(C)c1 (stereo not drawn) [CC-101, N-(3,3-Dimethyl-piperidin-4-yl)-2-[5-[[(4-methoxy-2,6-dimethyl-phenyl)sulfonyl]-methyl]-[1,2,4]oxadiazol-3-yl]-N-methyl-acetamid]
100		COc1cc(C)c(S(=O)(=O)Cc2noc(CC(=O)NC3CCC(O)CC3(C)C)n2)c(C)c1 (stereo not drawn) [SC-35, N-(4-Hydroxy-2,2-dimethyl-cyclohexyl)-2-[3-[[(4-methoxy-2,6-dimethyl-phenyl)sulfonyl]-methyl]-[1,2,4]oxadiazol-5-yl]-acetamid]
100		Cc1cccc(Cl)c1S(=O)(=O)Cc1noc(C(=O)N2CCC3(CC2)CCN(c2ccncc2)CC3)n1 [CC-148, [3-[[(2-Chlor-6-methyl-phenyl)sulfonyl]-methyl]-[1,2,4]oxadiazol-5-yl]-(9-pyridin-4-yl-3,9-diazaspiro[5.5]undecan-3-yl)-methanon]

Compound	inhibition at 10 µM [%]	% Inhibierung (human B1R) bei 10 µM [%]
COc1cc(C)c(S(=O)(=O)Cc2noc(CC(=O)N3CCN(Cc4ccnc(N5CCCC5)c4)CC3)n2)c(C)c1 [SC-52, 2-[3-[[(4-Methoxy-2,6-dimethyl-phenyl)sulfonyl]-methyl]-[1,2,4]oxadiazol-5-yl]-1-[4-[(2-pyrrolidin-1-yl-pyridin-4-yl)-methyl]-piperazin-1-yl]-ethanon]	100	
